Assay results published in PMC9934367, “Functional impact of subunit composition and compensation on Drosophila melanogaster nicotinic receptors–targets of neonicotinoids” (PLOS Genetics, 2023).
Like-named read-outs stand apart in the source and are kept apart here.

Assays:
[1] = target: T1, Dα1/Dα3/Dβ1/Dβ2 nAChR (Drosophila melanogaster, UniProt P04755+P09478+P25162+Q9W3G6); assay: cell-based; set-up: species or system D. melanogaster; conditions: mean ± standard error (n = 5)
T1 construct: Dα1 (NP_524481); Dβ1 (NP_523927); Dβ2 (NP_524483); expressed in transfected cells; host or cells: Xenopus laevis oocytes (cRNA injection)
Description: (§1) cDNAs of the nAChR subunits and co-factors were cloned into pcDNA3.1 (+) vector (Thermo Fisher Scientific). The accession numbers of the nAChR subunits and cofactors are as follows: Dα1 (NP_524481), Dα2 (NP_524482), Dα3 (NP_525079), Dα4 (CAB77445), Dβ1 (NP_523927), Dβ2 (NP_524483), Dβ3 (NP_525098), DmRIC-3 (CAP16647), DmUNC-50 (NP_649813), and DmTMX3 (NP_648847). cRNAs were prepared using the mMESSAGE mMACHINE T7 ULTRA Transcription Kit (Thermo Fisher Scientific, #AM1345) according to the manual with the cDNA template which was cut with appropriate restriction enzymes at the 3’ end of the cDNA.
(§2) We minimised the use of X. laevis according to the UK Animals (Scientific Procedures) Act, 1986. […] Oocytes were defolliculated after collagenase treatment in Ca^2+-free standard oocyte saline (Ca^2+-free SOS). cRNAs of the nAChR subunits and co-factors mixed at a concentration of 0.1 mg/mL was injected into oocytes at a volume of 50 nL. Then the oocytes were incubated in the incubation medium (SOS supplemented with sodium pyruvate (Nacalai Tesque, #13058–12), penicillin-streptomycin (MilliporeSigma, #P4333), gentamycin (Nacalai Tesque, #16672–04), and 4% horse serum (Thermo Fisher Scientific, #26050–070) for 3−4 days prior to electrophysiology.
(§3) Each defolliculated X. laevis oocyte was secured in a Perspex recording chamber and perfused with the standard oocyte saline (SOS) containing 0.5 μM atropine (SOSA) at a flow rate of 7−10 mL/min [48]. Two glass electrodes filled with 2 M KCl were impaled into each oocyte and the membrane potential was clamped at -100 mV. […] The peak amplitude of the response was measured and analysed by pCLAMP (Molecular Devices, USA).
(§4) Y=Imax/1+10^(logEC50‐X)nH
(§5) Where Y is the normalised response, X is log[ligand (M)], EC50 is the half maximal concentration (M), Imax is the maximum normalised response and nH is the Hill coefficient.

[2] = target: T2, Dα1/Dα2/Dα3/Dβ1 nAChR (Drosophila melanogaster, UniProt P04755+P09478+P17644+Q9W3G6); assay: cell-based; set-up: species or system D. melanogaster; conditions: mean ± standard error (n = 5)
T2 construct: Dα1 (NP_524481); Dα2 (NP_524482); Dβ1 (NP_523927); expressed in transfected cells; host or cells: Xenopus laevis oocytes (cRNA injection)
Description: as §1, §2, §3, §4, §5

[3] = target: T3, Dα1/Dα3/Dβ1 nAChR (Drosophila melanogaster, UniProt P04755+P09478+Q9W3G6); assay: cell-based; set-up: species or system D. melanogaster
T3 construct: Dα1 (NP_524481); Dβ1 (NP_523927); expressed in transfected cells; host or cells: Xenopus laevis oocytes (cRNA injection)
Description: as §1, §2, §3, §4, §5

[4] = target: Dα2/Dα3/Dα4/Dβ1/Dβ2 nAChR; conditions: mean ± standard error (n = 5); for Imax: normalised to maximum ACh response
Description: as §1, §2, §3, §4, §5

[5] = target: Dα1/Dα2/Dα4/Dβ1/Dβ2 nAChR; conditions: mean ± standard error (n = 5); for Imax: normalised to maximum ACh response
Description: as §1, §2, §3, §4, §5

[6] = target: Dα1/Dα3/Dα4/Dβ1/Dβ2 nAChR; conditions: mean ± standard error (n = 5); for Imax: normalised to maximum ACh response
Description: as §1, §2, §3, §4, §5

[7] = test system: Adult D. melanogaster flies; assay: Adult climbing assay; format: in vivo; conditions: RNAi of Dα2
Description: All flies were raised at 25°C under 12 h/12 h light/dark cycle. The animals were reared on standard fly food containing 5.5 g agar, 100 g glucose, 40 g dry yeast, 90 g cornflour, 3 mL propionic acid, and 3.5 mL 10% butyl p-hydroxybenzoate (Nacalai Tesque, Japan, #06327–15) in 70% ethanol per liter. The control strain was w^1118, and transgenic flies are as follows: UAS-nAChRα1 RNAi (#28688) was obtained from the Bloomington Drosophila Stock Center (BDSC); UAS-nAChRα2 RNAi (UAS-Dα2 RNAi, #10760), UAS-nAChRα3 RNAi (UAS-Dα3 RNAi, #101806); UAS-dicer2 (#60009) were obtained from the Vienna Drosophila Resource Center (VDRC); and UAS-mCD8::GFP (#108068) was obtained from Kyoto Stock Center. elav-Gal4 (3A3) was obtained from Michael B. O’Connor. nAChRα3-knock-in 2A-Gal4 (Dα3-knock-in T2A-Gal4) was generated by the CRISPR/Cas9 system as described in detail below.
Adult D. melanogaster flies were collected within a day following eclosion and placed in normal fly food (less than 30 flies/vial). Flies were transferred daily to new fly food. 2–5 days after eclosion, flies were briefly anesthetised with CO2, and the sexes were separated and sorted into fly vials containing 1.0% agar food for starvation (10 flies/vial). After 16 h starvation, flies were transferred to vials containing neonicotinoid-containing food without anesthesia and cultured for 6 h (10 flies/vial). Neonicotinoid-containing foods were prepared by mixing 10 μL of diluted neonicotinoids dissolved in DMSO with 990 μL of a solution containing 1% agar and 5% sucrose for each vial. After 6 h cultured in vials containing neonicotinoid-containing food, flies were gently tapped down to the surface of the food, and flies that climbed within 20 s after tapping were recorded by a video camera (GZ-F270-W, JVCKENWOOD, Japan). The maximum climbing heights of the flies within 20 s after tapping were measured using ImageJ1.53v (National Institute of Health, USA). Since the height from the surface of the food to the vial top is 8 cm, the maximum climbing height is 8 cm.

[8] = efficacy, mean ± standard error (n = 5)
[9] = normalised to maximum ACh response
[10] = mean ± standard error (n = 5), read-out: pEC50 (converted)
[11] = normalised to maximum ACh response, mean ± standard error (n = 5)

| SMILES | Imax ([1]; efficacy) | Imax ([2]; efficacy) | Imax [3, 8] | EC50 [1] [µM] | Imax [1, 9] | EC50 [2] [µM] | Imax [2, 9] | EC50 [3, 10] [µM] | Imax [3, 11] | pEC50 [4] | Imax [4] | pEC50 [5] | Imax [5] | pEC50 [6] | Imax [6] | sensitivity in adults, effect of RNAi ([7]; adult males) | sensitivity in adults, effect of RNAi ([7]; adult females) | other results |
| --- | --- | --- | --- | --- | --- | --- | --- | --- | --- | --- | --- | --- | --- | --- | --- | --- | --- | --- |
| CC(=O)OCC[N+](C)(C)C [ACh, acetylcholine] | 1 | 1 | 1 | – | – | – | – | – | – | – | – | – | – | – | – | – | – | – |
| CN/C(=N\[N+](=O)[O-])NCc1cnc(Cl)s1 [Clothianidin, clothianidin] | 0.684 | 0.817 | 0.627 | 0.0398 | 0.684 ± 0.022 | 0.282 | 0.817 ± 0.024 | 0.0631 | 0.627 ± 0.025 | 7.11 ± 0.12 | 0.912 ± 0.041 | 6.72 ± 0.09 | 1.001 ± 0.031 | 6.94 ± 0.06 | 0.425 ± 0.008 | hypersensitivity | – | Imax ([5]; listed as clothianidin): 1.001; Imax ([6]; listed as clothianidin): 0.425 |
| O=[N+]([O-])NC1=NCCN1Cc1ccc(Cl)nc1 [Imidacloprid, imidacloprid] | 0.330 | 0.094 | 0.170 | 0.0302 | 0.330 ± 0.018 | 0.0832 | 0.094 ± 0.007 | 0.0263 | 0.170 ± 0.020 | 7.40 ± 0.20 | 0.027 ± 0.002 | 6.48 ± 0.28 | 0.172 ± 0.020 | 7.30 ± 0.17 | 0.101 ± 0.008 | hypersensitivity | hypersensitivity | Imax ([4]; listed as imidacloprid): 0.027 |
| N#C/N=C1\SCCN1Cc1ccc(Cl)nc1 [Thiacloprid, thiacloprid] | 0.107 | 0.047 | 0.047 | 0.01 | 0.107 ± 0.015 | 0.0186 | 0.047 ± 0.004 | – | 0.047 ± 0.006 | 7.99 ± 0.20 | 0.018 ± 0.002 | 7.01 ± 0.19 | 0.066 ± 0.007 | 7.96 ± 0.10 | 0.026 ± 0.001 | hypersensitivity | hypersensitivity | EC50 ([3]; read-out: EC50): 0.00851 µM; Imax ([4]; listed as thiacloprid): 0.018 |
